Key:
[1] = test system: Human glioma cell line U87 MG; experiment: Inhibition of proliferation of the U87 MG cell line (DAPI, In Cell Analyzer); type: cell-based; details: for IC50: Homo sapiens, U-87 MG, 72 hours incubation, read-out: IC50, proliferation of U87MG Cell Line
Protocol: (§1) The inhibition rate of each compound at each concentration point was calculated by the formula as follows and curve fitting was performed by GraphPad Prism 5 software to obtain the IC50 value.

CDK1/CyclinA2 = CDK1/CyclinA2 (Homo sapiens (Human), UniProt P06493); experiment: CDK kinase inhibitory activity, ADP-Glo Kinase Assay, CDK1/CyclinA2; type: biochemical
CDK2/CyclinE1 = CDK2/CyclinE1 (Homo sapiens (Human), UniProt P24941); experiment: Kinase inhibitory activity on CDK2/CyclinE1; type: biochemical
Protocol: (§2) 1.2 Experimental Preparation • 1.2.1 Preparation of Kinase Reaction Buffer I: The 5×Reaction Buffer A (Promega; V307A-C) provided in the kit was mixed and diluted with MILLI-Q® H2O and 0.1 M DTT (dithiothreitol) to give 4× kinase buffer, and then MILLI-Q® H2O was further added to finally formulate the solution into 1× Kinase buffer.
1 μl of 10 mM standard substance stock solution was taken and added to 9 μl of kinase reaction buffer I and mixed well; then 90 μl of kinase reaction buffer I was added and mixed well; then 100 μl of kinase reaction buffer I was added and mixed well. The final concentration was 50 μM. • b. 40 μl of kinase reaction buffer II was added into B2 to B10 of a 96-well plate, and 50 μl of the above solution was added into B1; • c. 10 μl of solution was taken from well B1, added into B2, and mixed well; then 10 μl of the resulting solution was taken and added into B3, and dilution was carried out in sequence to B9, so as to obtain control solutions that are diluted by 5-fold sequentially. • (2) Preparation of test compound solution: • a. […]
as §1

CDK6/CyclinD3 = CDK6/CyclinD3 (Homo sapiens (Human), UniProt Q00534); experiment: CDK kinase inhibitory activity, ADP-Glo Kinase Assay, CDK6/CyclinD3; type: biochemical
Pim-1 = Pim-1 (Homo sapiens (Human), UniProt P11309); experiment: Kinase inhibitory activity on Pim-1; type: biochemical
Protocol: as §2
(§3) 1 μl of 10 mM standard substance stock solution was taken and added to 9 μl of kinase reaction buffer I and mixed well; then 90 μl of kinase reaction buffer I was added and mixed well; then 100 μl of kinase reaction buffer I was added and mixed well. The final concentration was 50 μM. • b. 40 μl of kinase reaction buffer II was added into B2 to B10 of a 96-well plate, and 50 μl of the above solution was added into B1; • c. 10 μl of solution was taken from well B1, added into B2, and mixed well; then 10 μl of the resulting solution was taken and added into B3, and dilution was carried out in sequence to B9, so as to obtain control solutions that are diluted by 5-fold sequentially. • (2) Preparation of test compound solution: • a. Test compound solutions at a certain concentration were taken, respectively, diluted with kinase reaction buffer I to a final concentration of 50 μM compound solution; • b. 40 μl of kinase reaction buffer II was added into H2 to H10 of the 96-well plate; and 50 μl of the above solution was added into H1; • c. 10 μl of solution was taken from well H1, added into H2, and mixed well; then 10 μl of the resulting solution was taken and added into H3, and dilution was carried out in sequence to H9, so as to obtain test compound solutions that are diluted by 5-fold sequentially. • 1.2.4 Preparation of a mixed solution of reaction substrate and ATP: • a. Preparation of ATP solution: • 200 μl of 0.1 mM ATP solution: 2 μl of 10 mM ATP was added to 198 μl of kinase reaction buffer I; • 300 μl of 50 μM ATP solution: 150 μl of kinase reaction buffer I was added to 150 μl of the above 0.1 mM ATP solution; • b. Preparation of 300 μl of reaction substrate solution: • 150 μl 1 μg/μl reaction substrate stock solution was added to 150 μl kinase reaction buffer I, and mixed well; • c. The above a/b solutions were mixed to obtain mixed solutions, respectively.
(§4) 1.3 Experimental process: • 1.3.1: 2 μl of compound solutions of various concentrations were taken, added to a 384-well plate, and centrifuged 3 minutes; • 1.3.2: 4 μl of kinase solution was added to each well, centrifuged at 5000 rpm and 18° C. for 10 minutes, and shaken on a plate shaker for 10 minutes; • 1.3.3: 4 μl of mixed solution of substrate and ATP was added to each well, centrifuged at 5000 rpm and 18° C. for 10 minutes, and shaken on a plate shaker at 37° C. for 90 minutes; • 1.3.4: The 384-well plate was taken out, and allowed to stand to room temperature; • 1.3.5: 10 μl of ADP-GLO™ reagent was added to each well, centrifuged at 5000 rpm and 18° C. for 18 minutes, and shaken on a plate shaker at 25° C. for 40 minutes, and then the reaction was stopped; • 1.3.6: 20 μl of kinase detection reagent was added to each well, centrifuged at 5000 rpm and 18° C. for 10 minutes, and shaken on a plate shaker at 25° C. for 30 minutes; and • 1.3.7: M1000pro MICROPLATE READER was used to read […] values.
as §1

CDK9/CyclinD3 = CDK9/CyclinD3 (Homo sapiens (Human), UniProt P50750); experiment: Kinase inhibitory activity, ADP-Glo Kinase Assay, CDK9/CyclinD3; type: biochemical
Protocol: 1.1 Instrument and Kit Information
as §2, §3, §4, §1

Row | SMILES | IC50 [1] | IC50 (CDK1/CyclinA2) | IC50 (CDK2/CyclinE1) | IC50 (CDK6/CyclinD3) | CDK1/CDK6 (CDK6/CyclinD3; ratio of IC50s, selectivity for CDK6 over CDK1) | CDK9/CDK6 (CDK6/CyclinD3; ratio of IC50s, selectivity for CDK6 over CDK9) | Pim-1/CDK6 (CDK6/CyclinD3; ratio of IC50s, selectivity for CDK6 over Pim-1) | IC50 (Pim-1) | IC50 (CDK9/CyclinD3) | Inhibitory activity on proliferation of the U87MG cell line, in words ([1]; experimental conclusion) | Inhibitory effect on CDK6, in words (CDK6/CyclinD3; test conclusion)
1 | CCN1CCN(Cc2ccc(Nc3ncc(F)c(-c4cc(F)c5nc(C)n(C(C)C)c5c4)n3)nc2)CC1 [LY2835219, reference compound] | 151 nM | – | – | – | – | – | – | – | – | – | –
2 | CCN1CCC(c2ccc(Nc3ncc(F)c(-c4cc(F)c5c(c4)C4(CCCC4)C(C)=N5)n3)nc2)CC1 [Example 12, N-(5-(1-ethylpiperidin-4-yl)pyridin-2-yl)-5-fluoro-4-(7′-fluoro-2′-methylspiro [cyclopentane-1,3′-indol]-5′-yl)pyrimidine-2-amino] | – | 1070 nM | 394 nM | 3.78 nM | 283.33 | 18.75 | 3.99 | 15.1 nM | 57.2 nM | – | –
3 | CC1=Nc2c(F)cc(-c3nc(Nc4ccc(C5CCN(C)CC5)cn4)ncc3F)cc2C12CCCC2 [Example 17, 5-Fluoro-4-(7′-fluoro-2′-methylspiro[cyclopentane-1,3′-indol]-5′-yl)-N-(5-(1-methylpiperidin-4-yl)pyridin-2-yl)pyrimidine-2-amino] | 35.4 nM | 2710 nM | 2320 nM | 0.73 nM | – | – | – | 38.3 nM | 5.36 nM | significant inhibitory activity | higher enzymatic activity for CDK6

Source: patent publication US11091476B2, “Protein kinase inhibitors, preparation method and medical use thereof” (Gan & Lee Pharmaceuticals, priority 2015, dated 2021)
